Reference: ChEMBL document CHEMBL1159306, “Juncenolide A, a new briarane from the Taiwanese Gorgonian Junceella juncea” (J Nat Prod, 2002)
≈ marks a conversion by molar mass, not a printed value.

Legend:
[1] = Cytotoxicity against human DLD cells; type: functional, cell-based
[2] = Cytotoxicity against human KB16 cells; type: functional, cell-based

Molecule `C=C1CC[C@H](OC(=O)C(C)C)[C@@]2(C)[C@@H](OC(C)=O)CC[C@@]3(CO3)[C@@H]2[C@H](OC(C)=O)[C@]2(O)[C@@H](C)C(=O)O[C@H]2[C@H]1Cl` [JUNCENOLIDE A] has an IC50 [1] of 3.4 µg/mL (≈ 5.95 µM) and an IC50 [2] of 5.9 µg/mL (≈ 10.3 µM).
